Where two headings read alike, the source gives them in different places.
Key:
[1] = Stability in human liver microsomes; format: in vitro ADME
[2] = Stability in mouse liver microsomes; format: in vitro ADME
[3] = Mouse PK, plasma and brain levels after single IV dose; format: in vivo; conditions: single 10 mg/kg IV
MAO-A = target: T1, MAO-A (Homo sapiens, UniProt P21397); assay: Receptor/kinase panel: MAO-A; format: biochemical; conditions: off-target DAT/MAO-A at 10 μM vs on-target potency
T1 sequence (P21397 1-527): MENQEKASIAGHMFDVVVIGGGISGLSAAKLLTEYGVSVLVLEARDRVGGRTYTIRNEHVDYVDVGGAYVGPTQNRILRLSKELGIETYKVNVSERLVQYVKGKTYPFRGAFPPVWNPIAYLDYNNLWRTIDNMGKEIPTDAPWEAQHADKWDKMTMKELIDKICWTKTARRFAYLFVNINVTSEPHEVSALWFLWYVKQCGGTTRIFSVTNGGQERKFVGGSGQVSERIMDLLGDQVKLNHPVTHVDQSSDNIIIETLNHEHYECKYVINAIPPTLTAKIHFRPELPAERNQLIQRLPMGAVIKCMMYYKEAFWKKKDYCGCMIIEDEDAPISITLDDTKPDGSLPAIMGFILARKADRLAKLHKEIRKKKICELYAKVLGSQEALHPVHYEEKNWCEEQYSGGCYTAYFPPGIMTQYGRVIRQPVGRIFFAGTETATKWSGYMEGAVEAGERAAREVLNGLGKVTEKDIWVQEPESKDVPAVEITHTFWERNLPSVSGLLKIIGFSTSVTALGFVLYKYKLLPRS

P-gp = P-gp (Homo sapiens, UniProt P08183); assay: P-gp study, bidirectional permeability in NIH MDR1 cells; format: in vitro ADME
[4] = Parallel artificial membrane permeability assay (PAMPA); format: in vitro ADME
[5] = GF120918 −, read-out: Mean Recovery % A to B

Sequence of P-gp (P08183 whole entry): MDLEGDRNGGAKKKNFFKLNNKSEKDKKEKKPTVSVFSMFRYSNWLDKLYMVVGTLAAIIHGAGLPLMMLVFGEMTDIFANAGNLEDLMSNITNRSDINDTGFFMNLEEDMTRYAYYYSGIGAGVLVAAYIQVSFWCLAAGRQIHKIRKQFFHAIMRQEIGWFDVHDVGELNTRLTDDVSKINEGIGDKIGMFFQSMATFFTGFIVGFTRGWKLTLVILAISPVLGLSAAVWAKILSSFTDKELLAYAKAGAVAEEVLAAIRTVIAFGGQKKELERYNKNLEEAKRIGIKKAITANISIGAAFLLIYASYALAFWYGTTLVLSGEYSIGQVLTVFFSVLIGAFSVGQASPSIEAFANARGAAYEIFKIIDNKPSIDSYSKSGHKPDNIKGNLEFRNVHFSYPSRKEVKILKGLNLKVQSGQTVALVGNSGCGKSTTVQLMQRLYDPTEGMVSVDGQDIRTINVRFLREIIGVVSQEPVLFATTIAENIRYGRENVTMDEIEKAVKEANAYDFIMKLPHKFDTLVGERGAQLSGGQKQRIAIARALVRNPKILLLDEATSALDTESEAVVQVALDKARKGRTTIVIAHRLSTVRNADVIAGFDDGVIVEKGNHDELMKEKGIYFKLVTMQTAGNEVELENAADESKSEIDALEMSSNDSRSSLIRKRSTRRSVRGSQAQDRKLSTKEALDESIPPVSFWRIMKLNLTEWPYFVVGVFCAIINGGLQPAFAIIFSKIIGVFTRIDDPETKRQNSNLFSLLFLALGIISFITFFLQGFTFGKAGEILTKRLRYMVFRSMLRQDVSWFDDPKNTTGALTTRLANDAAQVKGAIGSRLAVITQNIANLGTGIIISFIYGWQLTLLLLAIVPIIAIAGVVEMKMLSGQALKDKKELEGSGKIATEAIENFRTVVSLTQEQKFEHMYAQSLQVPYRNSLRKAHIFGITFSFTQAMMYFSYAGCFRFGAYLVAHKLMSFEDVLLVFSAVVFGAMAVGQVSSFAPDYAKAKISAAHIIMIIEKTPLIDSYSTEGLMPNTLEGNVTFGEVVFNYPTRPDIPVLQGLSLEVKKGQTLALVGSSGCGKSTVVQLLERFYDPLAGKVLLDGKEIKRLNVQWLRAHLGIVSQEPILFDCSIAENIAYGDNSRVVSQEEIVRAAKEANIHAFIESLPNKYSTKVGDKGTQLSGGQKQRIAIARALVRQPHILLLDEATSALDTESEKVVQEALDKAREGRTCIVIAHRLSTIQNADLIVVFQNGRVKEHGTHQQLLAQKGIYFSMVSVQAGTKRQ

t1/2 HLM [1] [h]	t1/2 MLM [2] [h]	recovery (P-gp; [5]) [%]	SMILES	also measured
>2.42	>2.42	–	O=C(CCCOCc1ccccc1)N[C@H]1CC[C@H](O)CC1 [Compound 22]	–
–	–	–	O=C(CCCCCc1ccccc1)N[C@H]1CC[C@H](O)CC1 [Compound 15B, N-(trans-4-Hydroxycyclohexyl)-6-phenylhexanamide]	Vdss (volume of distribution at steady state) [3]: 0.35 L/kg; time therapeutic brain levels (>30 ng/g) were maintained [3]: more than 2 hours; safety window compared to on-target efficacy (MAO-A): 1,000 fold
>2.42	>2.42	–	O=C(CCOCCc1ccccc1)N[C@H]1CC[C@H](O)CC1 [Compound 23]	–
–	–	98.9	C[C@H]1O[C@@H](O[C@H]2[C@@H](O)C[C@H](O[C@H]3[C@@H](O)C[C@H](O[C@H]4CC[C@@]5(C)[C@H](CC[C@@H]6[C@@H]5C[C@@H](O)[C@]5(C)[C@@H](C7=CC(=O)OC7)CC[C@]65O)C4)O[C@@H]3C)O[C@@H]2C)C[C@H](O)[C@@H]1O [Digoxin]	recovery (P-gp; GF120918 −, read-out: Mean Recovery % B to A): 103%; Papp B→A (P-gp; MDCK-MDR1, with GF120918 (concentration not stated), GF120918 +): 2.05 ×10⁻⁶ cm/s; Papp B→A (P-gp; MDCK-MDR1, GF120918 −): 13.4 ×10⁻⁶ cm/s; recovery (P-gp; with GF120918 (concentration not stated), GF120918 +, read-out: Mean Recovery % B to A): 99.3%
>2.42	>2.42	–	O=C(COCCCc1ccccc1)N[C@H]1CC[C@H](O)CC1 [Compound 24]	–
>2.42	>2.42	–	O=C(CCCCOc1ccccc1)N[C@H]1CC[C@H](O)CC1 [Compound 21]	–
–	–	97.9	CC(C)(C)NCC(O)COc1cccc2c1CC(O)C(O)C2 (centres unmarked) [Nadolol]	Papp A→B (P-gp; MDCK-MDR1, GF120918 −): 0.26 ×10⁻⁶ cm/s
–	–	105	COCCc1ccc(OCC(O)CNC(C)C)cc1 (centres unmarked) [Metoprolol]	Papp A→B (P-gp; MDCK-MDR1, GF120918 −): 21.2 ×10⁻⁶ cm/s

SMILES	t1/2 HLM [1] [h]	t1/2 MLM [2] [h]	recovery (P-gp; [5]) [%]	also measured
O=C(N[C@H]1CC[C@H](O)CC1)OCCCCc1ccccc1 [Compound 25]	2.188	0.815	–	PAMPA compared to parent trans-N-(4-hydroxycyclohexyl)-6-phenylhexanamide [4]: 10 fold
